This is an account of results in patent US11351134B2, “Small molecule agents, compositions, and formulations, for internal use, displaying inhibitory activity against gram-positive and/or gram-negative organisms” (NATUREZA, INC., priority 2017, dated 2022).

The assay has as its system representative Gram-positive pathogens and yeast. Kind of assay: Broth microdilution of lecithin/chitosan compositions, sonicated and/or filtered. Type of assay: cell-based. As to conditions: composition with lecithin and chitosan. An excerpt:
In a further preparation, lauric acid derivative, 12-aminododecanoic acid or 12-amino-1-dodecanoic acid methyl ester, was suspended individually (and independently) in an organic solvent, chloroform, and mixed with water, generally under agitated conditions. Here, for each sample, the amount of water to the amount of chloroform was at least 2:1, and was as high as 10:1. This was followed by chloroform evaporation, generally under vacuum using a freeze dryer. After removal of the chloroform, a lecithin solution was added to each sample. The lecithin was in a solution of acetic acid (e.g., 98 mM acetic acid and 2 mM sodium acetate), in which the amount of lecithin in solution was between about 1% to 5%. With addition of lecithin, each sample mixture contained up to about 4.8% lecithin (or generally about 5% or less), and up to about 7.8% of one of the lauric acid derivatives (or generally about 8% or less). pH of the solution was neutral. It is noted that the lecithin should be in a suitable form (e.g., solution or granules) acceptable for internal utilization (e.g., pharmaceutical grade). The lecithin may also include cholesterol, or other lecithin variants as described above, with similar results. Chitosan was then added to each of the samples, and each sample was then independently sonicated, followed by independent sterilization by high pressure filtration. […]
On the technique in general: Dilution methods test growth across graded concentrations, often in twofold steps.

As to `COC(=O)CCCCCCCCCCCN.Cl` [12-amino-1-dodecanoic acid methyl ester HCl], the “Growth inhibitory activity against representative Gram-positive pathogens and yeast” value was “exhibited growth inhibitory activity”.
